Reference: PMC8235783, “Radiopharmaceutical Formulation and Preclinical Testing of ^68Ga-Labeled DOTA-MGS5 for the Regulatory Approval of a First Exploratory Clinical Trial” (Pharmaceuticals, 2021)
Values belong to the compound of their own block, whether it stands above or below them.

What was measured:
[1] = 14-day extended single-dose intravenous toxicity study in rats; type: in vivo
Method: In the preclinical evaluation of the safety profile of DOTA-MGS5, a targeted approach was followed for the 14-day extended single-dose toxicity study conducted in male Wistar rats. Instead of performing the study in animals of both sexes at a single dose level, the non-clinical evaluation was confined to male animals, including, however, three different dose levels based on mg/kg scaling and body surface scaling (applying a factor of 6.2). Considering a maximum dose of 50 µg administered to patients and an exposure margin of 100-fold the clinical dose, a dose level of 0.5 mg/kg body weight was calculated for the study and used as medium dose. Two additional dose levels of 0.1 mg/kg body weight and 2.5 mg/kg body weight were selected to allow a more accurate evaluation of the safety profile. Based on the preclinical biodistribution studies, the stomach, pancreas, and kidneys were identified as the main target organs. In addition to these organs, the liver and colon as potential additional routes of excretion, as well as spleen and sternum (including bone marrow), were also included in the histopathological evaluation.
A NOAEL (no observed adverse effect level) of 2.5 mg/kg body weight was established from the study for the single administration of DOTA-MGS5. When considering body surface scaling from rats to humans, the NOAEL of 2.5 mg/kg body weight translates to a HED (human equivalent dose) of 0.4 mg/kg body weight. By applying a safety factor of 100, a maximum dose of 4 µg/kg body weight was established for human subjects receiving the initial clinical dose. For the first PET/CT examinations with ^68Ga-DOTA-MGS5, a maximum dose of 50 µg could be established as clinical dose, which remains well below the maximum dose of 4 µg/kg body weight.
The safety of the intravenous injection was tested for unlabeled DOTA-MGS5 in a GLP-compliant 14-day extended single-dose intravenous toxicity study in rats using the intravenous route of administration. The study was designed following a targeted microdose approach based on the ICH guideline M3 (R2) on non-clinical safety studies for the conduct of human clinical trials and marketing authorization for pharmaceuticals (EMA/CPMP/ICH/286/1995, December 2009), as well as the draft guideline on the non-clinical requirements for radiopharmaceuticals (EMA/CHMP/SWP/686140/2018, 15 November 2018). The study was conducted in a GLP-compliant laboratory (BSL BIOSERVICE Scientific Laboratories Munich GmbH, Planegg/Munich, Germany) using 60 6–7-week-old male healthy Wistar rats (Crl: WI(Han), Full Barrier, Charles River, Sulzfeld, Germany). […] Body weight and food consumption was determined on a weekly basis. […]

[2] = target: T1, CCK2R on A431-CCK2R cells (human CCK2R) (Homo sapiens, UniProt P32239); test: Receptor affinity competition assay against [125I][3-iodo-Tyr12,Leu15]gastrin-I; type: binding; settings: competition against [125I][3-iodo-Tyr12,Leu15]gastrin-I on A431-CCK2R cells, 1 h at RT; n = 3 (Ga-DOTA-MGS5 n = 1)
T1 construct: expressed in transfected cells; host or cells: A431 human epidermoid carcinoma cells, stably transfected (provided by Dr. Luigi Aloj)
T1 sequence (P32239 1-447): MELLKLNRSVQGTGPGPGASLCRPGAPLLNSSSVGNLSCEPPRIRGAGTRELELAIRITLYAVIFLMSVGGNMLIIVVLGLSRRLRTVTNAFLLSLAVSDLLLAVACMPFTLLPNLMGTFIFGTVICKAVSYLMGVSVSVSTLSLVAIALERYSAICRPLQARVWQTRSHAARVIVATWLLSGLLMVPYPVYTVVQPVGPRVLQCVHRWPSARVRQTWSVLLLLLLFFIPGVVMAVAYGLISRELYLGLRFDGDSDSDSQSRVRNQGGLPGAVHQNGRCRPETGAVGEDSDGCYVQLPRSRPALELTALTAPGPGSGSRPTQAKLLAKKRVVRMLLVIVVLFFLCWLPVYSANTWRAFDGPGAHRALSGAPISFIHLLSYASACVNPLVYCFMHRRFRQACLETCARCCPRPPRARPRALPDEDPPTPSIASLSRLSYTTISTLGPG
Method: A431-CCK2R and A431-mock cells were cultured in Dulbecco’s Modified Eagle Medium (DMEM) and AR42J cells were cultured in RPMI-1640 medium, both supplemented with 10% (v/v) fetal bovine serum and 5 mL of a 100x penicillin–streptomycin–glutamine mixture at 37 °C in a humidified 95% air/5% CO2 atmosphere. Media and supplements were purchased from Invitrogen Corporation (Lofer, Austria).
Binding assays on A431-CCK2R cells were carried out as previously described [37]. The cells were incubated with increasing concentrations of the peptide conjugates and [^125I][3-iodo-Tyr^12,Leu^15]gastrin-I (~20,000 cpm) for 1 h at RT. Half-maximum inhibitory concentration (IC50) values were calculated after nonlinear regression using Origin software (Microcal Origin 6.1, Northampton, MA, USA).

in vivo = settings: female, BALB/c, mouse, iv, 20 pmol peptide
Method: The biodistribution profile of ^68Ga-DOTA-MGS5 in female BALB/c mice was evaluated for the time points of 5, 20, 60, and 90 min post injection (p.i.).
Biodistribution studies evaluating the pharmacokinetics and tissue distribution of ^68Ga-DOTA-MGS5 were performed in 6-week-old female BALB/c mice (n = 12). Groups of three mice for each time point were injected intravenously via a lateral tail vein with ~1 MBq of ^68Ga-DOTA-MGS5 corresponding to 20 pmol peptide. The mice were euthanized by cervical dislocation 5, 20, 60, and 90 min after injection and different tissues (blood, lung, heart, muscle, spleen, intestine, liver, kidneys, pancreas, stomach, and femur) were removed, weighed, and their radioactivity measured in a gamma-counter together with a standard and the residual body. Results were expressed as percentage of injected activity per organ (% IA) and per gram tissue (% IA/g).

[3] = injected dose of 150 MBq; cited from earlier work
Method: When extrapolating the biodistribution data from mice to humans, a whole-body effective dose of 0.0102 mSv/MBq for men and of 0.0131 mSv/MBq for women was calculated. In Table 4, a summary of the calculated organ absorbed doses is given. At a maximum injected activity of 185 MBq, a whole-body radiation dose of 1.9–2.4 mSv can be anticipated for a PET examination with ^68Ga-DOTA-MGS5. The radiation exposure from the radioactive substance is in a similar range of a low-dose CT scan of 3–6 mSv. Due to the potential hazards of ionizing radiation, the dose of the PET/CT scan should be kept a ...

[4] = target: T2, AR42J cells with physiological expression of rat CCK2R (Rattus norvegicus, UniProt P30553); settings: 4 h after incubation; cited from earlier work
T2 construct: In AR42J cells with physiological expression of rat CCK2R; host or cells: AR42J rat pancreatic tumor cells
T2 sequence (P30553 1-452): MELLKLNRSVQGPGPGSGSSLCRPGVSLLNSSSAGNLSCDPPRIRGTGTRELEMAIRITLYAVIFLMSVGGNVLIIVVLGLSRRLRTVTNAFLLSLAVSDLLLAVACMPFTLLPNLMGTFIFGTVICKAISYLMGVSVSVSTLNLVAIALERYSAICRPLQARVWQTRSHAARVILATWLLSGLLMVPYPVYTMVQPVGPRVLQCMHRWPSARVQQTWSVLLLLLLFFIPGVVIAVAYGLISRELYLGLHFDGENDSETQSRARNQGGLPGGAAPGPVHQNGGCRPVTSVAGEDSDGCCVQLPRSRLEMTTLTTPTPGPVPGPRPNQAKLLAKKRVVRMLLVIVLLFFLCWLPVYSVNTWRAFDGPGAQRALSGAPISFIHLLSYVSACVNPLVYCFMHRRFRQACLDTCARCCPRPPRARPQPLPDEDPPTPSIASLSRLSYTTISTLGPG

[5] = target: T3, A431-CCK2R cells (human CCK2R) (Homo sapiens, UniProt P32239); settings: 1 h incubation; cited from earlier work
T3 construct: expressed in transfected cells; host or cells: A431 human epidermoid carcinoma cells, stably transfected (provided by Dr. Luigi Aloj)
T3 sequence (P32239 1-447): T1 sequence (P32239 1-447)
Method: For the time point of 1 h incubation, a cell internalization of ~20% was reported for ^177Lu-DOTA-PP-F11N in A431-CCK2R cells.

[6] = total radioactivity, uptake in blood
[7] = total radioactivity, uptake in femur
[8] = total radioactivity, uptake in heart
[9] = total radioactivity, uptake in intestine
[10] = total radioactivity, uptake in kidneys
[11] = total radioactivity, uptake in liver
[12] = total radioactivity, uptake in lung
[13] = total radioactivity, uptake in muscle
[14] = total radioactivity, uptake in pancreas
[15] = total radioactivity, uptake in spleen
[16] = total radioactivity, uptake in stomach

Compound: CCCC[C@@H](C(=O)N[C@@H](CC(=O)O)C(=O)N[C@@H](Cc1cccc2ccccc12)C(N)=O)N(C)C(=O)[C@H](Cc1c[nH]c2ccccc12)NC(=O)CNC(=O)[C@H](Cc1ccc(O)cc1)NC(=O)[C@H](C)NC(=O)[C@@H](CCC(=O)O)NC(=O)CN1CCN(CC(=O)O)CCN(CC(=O)O)CCN(CC(=O)O)CC1 [DOTA-MGS5, DOTA-DGlu-Ala-Tyr-Gly-Trp-(N-Me)Nle-Asp-1-Nal-NH2]
- treatment-related mortality or clinical symptoms ([1]; i.v. 0.1, 0.5 and 2.5 mg/kg BW, male Wistar rats, until end of observation periods (2 and 14 days)): no treatment-related mortality or clinical symptoms occurred
- HED (human equivalent dose) ([1]; rat, in vivo): 0.4 mg/kg body weight
- maximum dose for human subjects receiving the initial clinical dose ([1]; rat, in vivo): 4 µg/kg body weight
- IC50 [2]: 0.5 ± 0.1 nM

Compound: CCCC[C@@H](C(=O)N[C@@H](CC(=O)O)C(=O)N[C@@H](Cc1cccc2ccccc12)C(N)=O)N(C)C(=O)[C@H](Cc1c[nH]c2ccccc12)NC(=O)CNC(=O)[C@H](Cc1ccc(O)cc1)NC(=O)[C@H](C)NC(=O)[C@@H](CCC(=O)O)NC(=O)CN1CCN(CC(=O)O)CCN(CC(=O)O)CCN(CC(=O)O)CC1 [^68Ga-DOTA-MGS5, metal not drawn]
- maximum dose established as clinical dose ([1]; rat, in vivo): 50 µg
- uptake in blood (in vivo; 1.5 h): 0.94 ± 0.08 % IA/g
- tissue uptake dose at 5 min (in vivo; total radioactivity): 81.8 ± 2.5 %ID
- tissue uptake dose at 1.5 h (in vivo; total radioactivity): 11.4 ± 1.7 %ID
- tissue uptake at 5 min (in vivo; [6]): 17.6 ± 3.01 %ID/g
- tissue uptake at 20 min (in vivo; [6]): 6.76 ± 1.17 %ID/g
- tissue uptake at 1 h (in vivo; [6]): 1.99 ± 0.22 %ID/g
- tissue uptake at 1.5 h (in vivo; [6]): 0.9 ± 0.1 %ID/g
- tissue uptake at 5 min (in vivo; [7]): 2.77 ± 0.34 %ID/g
- tissue uptake at 20 min (in vivo; [7]): 1.75 ± 0.93 %ID/g
- tissue uptake at 1 h (in vivo; [7]): 0.62 ± 0.09 %ID/g
- tissue uptake at 1.5 h (in vivo; [7]): 0.55 ± 0.09 %ID/g
- tissue uptake at 5 min (in vivo; [8]): 5.11 ± 0.07 %ID/g
- tissue uptake at 20 min (in vivo; [8]): 2.24 ± 0.57 %ID/g
- tissue uptake at 1 h (in vivo; [8]): 0.7 ± 0.16 %ID/g
- tissue uptake at 1.5 h (in vivo; [8]): 0.35 ± 0.02 %ID/g
- tissue uptake at 5 min (in vivo; [9]): 2.42 ± 0.21 %ID/g
- tissue uptake at 20 min (in vivo; [9]): 1.22 ± 0.25 %ID/g
- tissue uptake at 1 h (in vivo; [9]): 0.75 ± 0.17 %ID/g
- tissue uptake at 1.5 h (in vivo; [9]): 0.62 ± 0.08 %ID/g
- tissue uptake at 5 min (in vivo; [10]): 17.6 ± 2.79 %ID/g
- tissue uptake at 20 min (in vivo; [10]): 8.41 ± 1.33 %ID/g
- tissue uptake at 1 h (in vivo; [10]): 5.11 ± 0.33 %ID/g
- tissue uptake at 1.5 h (in vivo; [10]): 4.6 ± 0.32 %ID/g
- tissue uptake at 5 min (in vivo; [11]): 5.02 ± 0.06 %ID/g
- tissue uptake at 20 min (in vivo; [11]): 2.28 ± 0.31 %ID/g
- tissue uptake at 1 h (in vivo; [11]): 1.21 ± 0.12 %ID/g
- tissue uptake at 1.5 h (in vivo; [11]): 1 ± 0.06 %ID/g
- tissue uptake at 5 min (in vivo; [12]): 8.51 ± 2.33 %ID/g
- tissue uptake at 20 min (in vivo; [12]): 3.78 ± 0.53 %ID/g
- tissue uptake at 1 h (in vivo; [12]): 1.1 ± 0.11 %ID/g
- tissue uptake at 1.5 h (in vivo; [12]): 0.59 ± 0.1 %ID/g
- tissue uptake at 5 min (in vivo; [13]): 2.89 ± 0.18 %ID/g
- tissue uptake at 20 min (in vivo; [13]): 1.03 ± 0.21 %ID/g
- tissue uptake at 1 h (in vivo; [13]): 0.49 ± 0.19 %ID/g
- tissue uptake at 1.5 h (in vivo; [13]): 0.18 ± 0.04 %ID/g
- tissue uptake at 5 min (in vivo; [14]): 4.03 ± 0.19 %ID/g
- tissue uptake at 20 min (in vivo; [14]): 2.17 ± 0.16 %ID/g
- tissue uptake at 1 h (in vivo; [14]): 1.5 ± 0.38 %ID/g
- tissue uptake at 1.5 h (in vivo; [14]): 1.42 ± 0.3 %ID/g
- tissue uptake at 5 min (in vivo; [15]): 3.53 ± 0.43 %ID/g
- tissue uptake at 20 min (in vivo; [15]): 1.7 ± 0.38 %ID/g
- tissue uptake at 1 h (in vivo; [15]): 0.71 ± 0.05 %ID/g
- tissue uptake at 1.5 h (in vivo; [15]): 0.69 ± 0.09 %ID/g
- tissue uptake at 5 min (in vivo; [16]): 6.63 ± 0.23 %ID/g
- tissue uptake at 20 min (in vivo; [16]): 4.09 ± 0.98 %ID/g
- tissue uptake at 1 h (in vivo; [16]): 4.63 ± 0.65 %ID/g
- tissue uptake at 1.5 h (in vivo; [16]): 4.12 ± 0.3 %ID/g

Compound: O=C([O-])CN(CCN(CC(=O)[O-])Cc1cc(CCC(=O)NCCCCCC(=O)NCCCC[C@H](NC(=O)N[C@@H](CCC(=O)O)C(=O)O)C(=O)O)ccc1[O-])Cc1cc(CCC(=O)O)ccc1[O-].[68Ga+3].[OH3+] [^68Ga-PSMA-11]
- effective radiation dose [3]: 2.4 mSv

Compound: DOTA-(DGlu)6-Ala-Tyr-Gly-Trp-Met-Asp-Phe-NH2 [^111In-CP04, minigastrin analog radiolabeled with indium-111, in clinical studies]
- cell uptake [4]: 14.4 ± 0.8%

Compound: DOTA-(DGlu)6-Ala-Tyr-Gly-Trp-Nle-Asp-Phe-NH2 [^177Lu-DOTA-PP-F11N, minigastrin analog radiolabeled with lutetium-177, in clinical studies]
- cell internalization [5]: ~ 20%

- IC50 [2]: 0.5 ± 0.1 nM
Compound: Ga-DOTA-MGS5: DOTA-MGS5 labeled with the stable isotope of gallium, reference standard
